According to patent publication US10730885B1, “Coumarin derivatives” (KING SAUD UNIVERSITY, priority 2019, dated 2020):
Values after ≈ are worked out from the molar mass of the structure shown.

Columns and labels:
[1] = DPPH microplate radical scavenging antioxidant assay; format: biochemical; settings: DPPH, 30 min, mean ± SD (n = 3)
Method in brief: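 Compounds, starting at 200 μg/mL in a dilution series, incubated with 0.2 mM methanolic DPPH for 30 min in the dark at 25° C. Absorbance at 515 nm converted to percent antioxidant activity; IC50 from concentration series, triplicate, mean±SD (n=3).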

trypsin = assay: Proteinase inhibitory activity (trypsin/casein); format: biochemical; settings: for % Inhibition of proteinase activity: 250 μg/ml, mean ± SD (n = 3)
Method in brief: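 Trypsin (0.06 mg) in 20 mM Tris-HCl pH 7.4 was preincubated 5 min with test sample (250 μg/ml solution), then 0.8% casein was added for 20 min. The reaction was stopped with perchloric acid, and supernatant absorbance was read at 280 nm after centrifugation. Percent inhibition relative to the uninhibited control was determined in triplicate.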

[2] = system: Candida albicans NRRL Y-477; assay: MIC by two fold serial dilution technique; format: cell-based; settings: NRRLY477, C. albicans, read-out: Minimal Inhibitory Concentration (MIC) CA
From the text: (§1) The newly synthesized compounds were individually tested for their in vitro antimicrobial activity against the standard bacteria strains of American Type Culture Collection (ATCC), namely, Staphylococcus aureus ATCC 29213, Bacillus subtilis ATCC 6633, Bacillus megaterium ATCC 9885 (Gram-positive), Escherichia coli ATCC 2592 and Pseudomonas aeruginosa ATCC 27953 (Gram-negative). In addition, they were microbiologically tested against the locally isolated Saccharomyces cerevisiae (yeast) and the standard strain of Agricultural Research Service Culture Collection (NRRL) of the yeast like pathogenic fungus Candida albicans NRRL Y-477. The primary screening was carried out using the agar well diffusion method using nutrient agar (NA) medium and Sabourand dextrose agar (SDA) medium for pathological tested bacteria and yeast, respectively.
(§2) The bacteriostatic activity of the active compounds (having IZ>16 mm) was then evaluated using the two fold serial dilution technique. Two-fold serial dilutions of the tested compound solutions were prepared using the proper nutrient broth. The final concentration of the solutions were 1000, 500, 250 and 125 μg/ml. The tubes were then inoculated with the test organisms, grown in their suitable broth at 37° C. for 24 hours for tested microorganisms. (1×10^8 CFU/ml for bacteria and 1×10^6 CFU/ml of yeast), each 5 ml received 0.1 ml of the above inoculum and incubated at 37° C. for 24 h. The lowest concentration showing no growth was taken as the minimum inhibitory concentration (MIC).

[3] = system: Pseudomonas aeruginosa ATCC 27953; assay: MIC by two fold serial dilution technique; format: cell-based; settings: ATCC27953, P. aeruginosa, read-out: Minimal Inhibitory Concentration (MIC) PA
From the text: as §1, §2

[4] = system: Saccharomyces cerevisiae (local isolate); assay: MIC by two fold serial dilution technique; format: cell-based; settings: read-out: Minimal Inhibitory Concentration (MIC) SC
From the text: as §1, §2

[5] = system: Escherichia coli ATCC 2592; assay: MIC by two fold serial dilution technique; format: cell-based; settings: ATCC2592, E. coli, read-out: Minimal Inhibitory Concentration (MIC) EC
From the text: as §1, §2

[6] = system: Bacillus megaterium ATCC 9885; assay: MIC by two fold serial dilution technique; format: cell-based; settings: Priestia megaterium, ATCC9885; B. megaterium; read-out: Minimal Inhibitory Concentration (MIC) BM
From the text: as §1, §2

[7] = system: Staphylococcus aureus ATCC 29213; assay: MIC by two fold serial dilution technique; format: cell-based; settings: ATCC29213, S. aureus, read-out: Minimal Inhibitory Concentration (MIC) SA
From the text: as §1, §2

[8] = system: Bacillus subtilis ATCC 6633; assay: MIC by two fold serial dilution technique; format: cell-based; settings: ATCC6633, B. subtilis, read-out: Minimal Inhibitory Concentration (MIC) BS
From the text: as §1, §2

tested microorganisms = assay: MIC by two fold serial dilution, summary over the tested microorganisms; format: cell-based; settings: against gram-positive bacteria
From the text: as §1, §2

[9] = system: Escherichia coli ATCC 2592; assay: Agar well diffusion, primary antimicrobial screening; format: cell-based; settings: Escherichia coli, ATCC2592; E. coli ATCC 2592; 100 μL of 10 mg/ml in DMSO, 24 h; read-out: Inhibition Diameter Zone EC
Method in brief: (§3)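 Seeded agar (bacteria 1×10^8 CFU/mL on nutrient agar; yeasts 1×10^6 CFU/ml on Sabouraud dextrose agar), 10 mm wells loaded with compound at 10 mg/ml in DMSO. Incubated 24 h at 37° C. Inhibition zone diameter (mm), mean of triplicate; DMSO negative control.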

[10] = system: Bacillus megaterium ATCC 9885; assay: as above; format: cell-based; settings: Priestia megaterium, ATCC9885; B. megaterium ATCC 9885; 100 μL of 10 mg/ml in DMSO, 24 h; read-out: Inhibition Diameter Zone BM
Method in brief: as §3

| Compound | IC50 [1] | in vitro anti-proteinase activity compared with aspirin (trypsin) | % Inhibition of proteinase activity (trypsin) | melting point | MIC [2] | MIC [3] | MIC [4] | MIC [5] | MIC [6] | MIC [7] | MIC [8] | MIC (tested microorganisms) | zone of inhibition at 10000 µg/mL [9] | zone of inhibition at 10000 µg/mL [10] |
| --- | --- | --- | --- | --- | --- | --- | --- | --- | --- | --- | --- | --- | --- | --- |
| COc1cc(C=NC2=C(C#N)C(c3ccc([N+](=O)[O-])cc3)c3c(c4cc(C)ccc4oc3=O)O2)cc(OC)c1OC (racemic) [Compound 8c, (±)-9-methyl-4-(4-nitrophenyl)-5-oxo-2-((3,4,5-trimethoxybenzylidene)amino)-4H,5H-pyrano[3,2-c]chromene-3-carbonitrile] | — ((—): inactive (IC50 > 200 μg/mL)) | more potent | 68.5±6.23% | 221 to 223 °C | 500 µg/mL (≈ 903 µM) | 500 µg/mL (≈ 903 µM) | 500 µg/mL (≈ 903 µM) | 500 µg/mL (≈ 903 µM) | 500 µg/mL (≈ 903 µM) | 500 µg/mL (≈ 903 µM) | 500 µg/mL (≈ 903 µM) | – | – | – |
| Cc1ccc2oc(=O)c3c(c2c1)OC(N=Cc1ccc(Cl)cc1Cl)=C(C#N)C3c1ccco1 (racemic) [Compound 8f, (±)-2-((2,4-dichlorobenzylidene)amino)-4-(furan-2-yl)-9-methyl-5-oxo-4H,5H-pyrano[3,2-c]chromene-3-carbonitrile] | — ((—): inactive (IC50 > 200 μg/mL)) | – | 26.83 ± 5.33% | > 300 °C | 500 µg/mL (≈ 1050 µM) | 1000 µg/mL (≈ 2100 µM) | 500 µg/mL (≈ 1050 µM) | 1000 µg/mL (≈ 2100 µM) | 1000 µg/mL (≈ 2100 µM) | 500 µg/mL (≈ 1050 µM) | 500 µg/mL (≈ 1050 µM) | 500 to 1000 µg/mL (≈ 1050 to 2100 µM) | 20 mm | 20 mm |
